This note sets out measurements from ChEMBL document CHEMBL2440092, “Investigation of aryl halides as ketone bioisosteres: refinement of potent and selective inhibitors of human cytochrome P450 19A1 (aromatase)” (Bioorg Med Chem Lett, 2013).

For this test, the target named is T1, Aromatase (Homo sapiens, UniProt P11511).
T1 sequence (P11511 whole entry): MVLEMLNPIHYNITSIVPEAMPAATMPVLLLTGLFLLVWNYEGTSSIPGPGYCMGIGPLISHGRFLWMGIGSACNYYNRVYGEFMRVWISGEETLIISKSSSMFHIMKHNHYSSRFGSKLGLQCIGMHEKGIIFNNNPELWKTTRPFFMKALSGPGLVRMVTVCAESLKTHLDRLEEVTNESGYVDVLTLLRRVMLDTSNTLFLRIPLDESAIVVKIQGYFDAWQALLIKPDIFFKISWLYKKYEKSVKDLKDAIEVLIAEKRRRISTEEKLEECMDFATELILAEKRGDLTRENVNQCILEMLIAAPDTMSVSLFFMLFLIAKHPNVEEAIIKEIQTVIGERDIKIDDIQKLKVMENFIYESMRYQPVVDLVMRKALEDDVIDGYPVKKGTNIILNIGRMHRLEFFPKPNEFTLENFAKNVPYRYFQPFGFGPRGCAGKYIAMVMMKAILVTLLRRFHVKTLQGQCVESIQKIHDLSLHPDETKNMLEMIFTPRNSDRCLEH
Description: Inhibition of recombinant human aromatase using O-dibenzylfluorescein benzyl ester as substrate by fluorometric assay

As usually defined, the Ki is the dissociation constant of the complex between target and ligand, obtained from inhibition or displacement. A higher Ki goes with weaker binding. `CC(=O)O[C@@H](c1ccc(F)cc1)[C@H](Cn1ccnn1)c1ccccc1` came in with a Ki of 350 nM.

In the case of `COCO[C@@H](c1ccc(F)cc1)[C@@H](Cn1ccnn1)c1ccccc1`, the Ki came out at 80 nM.

For the molecule `O[C@@H](c1ccccc1)[C@H](Cn1ccnn1)c1ccc(Br)cc1`, the affinity, expressed as Ki, was 841 nM.

In turn, `O[C@@H](c1ccccc1)[C@@H](Cn1ccnn1)c1ccc(Br)cc1` yielded a Ki of 820 nM.

`O[C@@H](c1ccc(F)cc1)[C@H](Cn1ccnn1)c1ccccc1` gave a Ki of 200 nM.

In the case of `COCO[C@@H](c1ccc(F)cc1)[C@H](Cn1ccnn1)c1ccccc1`, affinity was put at a Ki of 160 nM. The Ki values of the last two molecules are within 1.5-fold of each other.

Regarding `CC(=O)O[C@@H](c1ccc(Br)cc1)[C@@H](Cn1ccnn1)c1ccccc1`, the Ki turned out to be 90 nM.

`COCO[C@@H](c1ccc(Br)cc1)[C@@H](Cn1ccnn1)c1ccccc1` had a Ki of 20 nM.

For `CC(=O)O[C@@H](c1ccc(F)cc1)[C@@H](Cn1ccnn1)c1ccccc1`, the Ki amounted to 110 nM. Compared with the last molecule, the Ki is about 5.5-fold higher.

The molecule `COCO[C@@H](c1ccccc1)[C@@H](Cn1ccnn1)c1ccc(Br)cc1` yielded a Ki of 111 nM.

`COCO[C@@H](c1ccc(Br)cc1)[C@H](Cn1ccnn1)c1ccccc1` registered a Ki of 70 nM.

As for `CC(=O)O[C@@H](c1ccccc1)[C@@H](Cn1ccnn1)c1ccc(Br)cc1`, the affinity corresponds to a Ki of 237 nM.

Regarding `CC(=O)O[C@@H](c1ccccc1)[C@H](Cn1ccnn1)c1ccc(Br)cc1`, the affinity, expressed as Ki, was 647 nM. This Ki is about 2.7-fold higher than that of the molecule before.

As for `COCO[C@@H](c1ccccc1)[C@H](Cn1ccnn1)c1ccc(Br)cc1`, the affinity, expressed as Ki, was 20 nM.

On to `O[C@@H](c1ccc(F)cc1)[C@@H](Cn1ccnn1)c1ccccc1`, for which the Ki came out at 330 nM. This Ki is about 16-fold higher than that of the molecule before.
